Data published in US8999982B2, “Pharmaceutically active compounds as Axl inhibitors” (Lead Discovery Center GmbH, priority 2010, dated 2015).

target: Axl (Homo sapiens (Human), UniProt P30530); experiment: Axl binding assay; details: not given
Description: Binding of the tracer to the kinase is detected using an EU-labeled anti-tag antibody. […] Binding of an inhibitor to the kinase competes for binding with the tracer, resulting in a loss of FRET-signal. At first a compound according to formula (I) was diluted in 20 mM Hepes pH 8.0, 1 mM DTT, 10 mM MgCl2 and 0.01% Brij35.

Chain of Axl (P30530 26-894): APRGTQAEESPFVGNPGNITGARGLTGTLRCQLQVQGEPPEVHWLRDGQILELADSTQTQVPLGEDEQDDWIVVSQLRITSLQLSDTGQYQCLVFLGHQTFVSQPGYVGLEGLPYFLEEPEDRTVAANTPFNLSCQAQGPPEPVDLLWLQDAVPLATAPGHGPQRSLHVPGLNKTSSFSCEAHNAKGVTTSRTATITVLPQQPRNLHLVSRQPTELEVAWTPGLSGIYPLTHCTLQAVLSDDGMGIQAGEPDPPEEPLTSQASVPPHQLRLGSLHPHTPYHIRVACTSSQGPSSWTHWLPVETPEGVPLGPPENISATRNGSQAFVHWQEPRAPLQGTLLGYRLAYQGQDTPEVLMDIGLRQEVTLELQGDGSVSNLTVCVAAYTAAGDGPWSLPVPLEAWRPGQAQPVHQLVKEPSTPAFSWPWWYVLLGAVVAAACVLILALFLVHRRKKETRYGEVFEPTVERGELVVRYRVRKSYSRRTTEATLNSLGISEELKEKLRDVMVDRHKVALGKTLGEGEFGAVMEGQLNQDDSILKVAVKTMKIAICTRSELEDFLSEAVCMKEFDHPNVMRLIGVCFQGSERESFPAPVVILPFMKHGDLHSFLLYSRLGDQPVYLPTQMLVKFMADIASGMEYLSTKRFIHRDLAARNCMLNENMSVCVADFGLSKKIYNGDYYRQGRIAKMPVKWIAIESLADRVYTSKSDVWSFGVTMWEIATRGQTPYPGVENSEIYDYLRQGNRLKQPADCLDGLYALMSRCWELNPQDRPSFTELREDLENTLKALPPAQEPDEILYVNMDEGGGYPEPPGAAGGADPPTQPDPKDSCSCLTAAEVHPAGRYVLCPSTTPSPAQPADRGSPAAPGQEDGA

`COc1cc2nccc(Oc3ccc(N)cc3Cl)c2cc1OC` [3-chloro-4-((6,7-dimethoxyquinolin-4-yl)oxy)aniline] and `COc1cc2nccc(Oc3ccc(N)cc3F)c2cc1OC` [4-((6,7-dimethoxyquinolin-4-yl)oxy)-3-fluoroaniline] cannot be ordered by IC50: > 10 µM for the first, > 10 µM for the second.

`COc1cc(Oc2ccnc3cc(OC)c(OC)cc23)ccc1N` [4-((6,7-dimethoxyquinolin-4-yl)oxy)-2-methoxyaniline] and `COc1cc2nccc(Oc3ccc(N)c(C)c3)c2cc1OC` [4-((6,7-dimethoxyquinolin-4-yl)oxy)-2-methylaniline] cannot be ordered by IC50: > 10 µM for the first, > 10 µM for the second.

`COc1cc2nccc(Oc3ccc(N)cc3C)c2cc1OC` [4-((6,7-dimethoxyquinolin-4-yl)oxy)-3-methylaniline] and `COc1cc2nccc(Oc3ccc(N)cc3)c2cc1OC` [4-((6,7-dimethoxyquinolin-4-yl)oxy)aniline] cannot be ordered by IC50: > 10 µM for the first, > 10 µM for the second.

`COc1cc2nccc(Oc3ccc(N)nc3)c2cc1OC` [5-((6,7-dimethoxyquinolin-4-yl)oxy)pyridin-2-amine] and `COc1cc2nccc(Oc3ccc(NC(=O)c4ccco4)cc3)c2cc1OC` [Ref3, N-(4-((6,7-dimethoxyquinolin-4-yl)oxy)phenyl)furan-2-carboxamide, reference compound] cannot be ordered by IC50: > 10 µM for the first, > 10 µM for the second.

First: COc1cc2nccc(Oc3ccc(NC(=O)c4csc(-c5ccc(C(F)(F)F)cc5)n4)cc3F)c2cc1OC [Example 2, N-[4-[(6,7-dimethoxy-4-quinolyl)oxy]-3-fluoro-phenyl]-2-[4-(trifluoromethyl)phenyl]thiazole-4-carboxamide]
Second: COc1cc2nccc(Oc3ccc(NC(=O)c4cc(-c5ccccc5)on4)cc3F)c2cc1OC [Ref2, N-(4-((6,7-dimethoxyquinolin-4-yl)oxy)-3-fluorophenyl)-5-phenylisoxazole-3-carboxamide, reference compound]
The IC50 of the first is lower: 0.5 to 5 µM for the first, > 10 µM for the second.

`COc1cc2nccc(Oc3ccc(NC(=O)c4nccs4)cc3F)c2cc1OC` [Example 6, N-[4-[(6,7-dimethoxy-4-quinolyl)oxy]-3-fluoro-phenyl]thiazole-2-carboxamide] and `COc1cc2nccc(Oc3ccc(NC(=O)c4cc(C)on4)cc3F)c2cc1OC` [Example 9, N-[4-[(6,7-dimethoxy-4-quinolyl)oxy]-3-fluoro-phenyl]-5-methyl-isoxazole-3-carboxamide] fall in the same range of IC50: 0.5 to 5 µM for the first, 0.5 to 5 µM for the second.

First: COc1cc2nccc(Oc3ccc(NC(=O)c4nn(C)c5ccccc45)cc3F)c2cc1OC [Example 8, N-[4-[(6,7-dimethoxy-4-quinolyl)oxy]-3-fluoro-phenyl]-1-methyl-indazole-3-carboxamide]
Second: COc1cc2nccc(Oc3ccc(NC(=O)c4cnn(-c5ccccc5)c4C(F)(F)F)cc3F)c2cc1OC [Ref1, N-(4-((6,7-dimethoxyquinolin-4-yl)oxy)-3-fluorophenyl)-1-phenyl-5-(trifluoromethyl)-1H-pyrazole-4-carboxamide, reference compound]
The IC50 of the first is lower: 0.5 to 5 µM for the first, > 10 µM for the second.

First: COc1cc2c(Oc3ccc(NC(=O)c4nc(-c5ccccc5OC)cs4)nc3)ccnc2cc1OCC1CCNCC1 [Example 100, N-(5-((6-methoxy-7-(piperidin-4-ylmethoxy)quinolin-4-yl)oxy)pyridin-2-yl)-4-(2-methoxyphenyl)thiazole-2-carboxamide]
Second: COc1cc2nccc(Oc3ccc(NC(=O)c4ccncc4)cc3)c2cc1OC [Ref5, N-(4-((6,7-dimethoxyquinolin-4-yl)oxy)phenyl)isonicotinamide, reference compound]
The IC50 of the first is lower: 0.5 to 5 µM for the first, > 10 µM for the second.

Compared with `CCOc1cn(-c2ccn(C)n2)nc1C(=O)Nc1ccc(Oc2ccnc3cc(OC)c(OC)cc23)c(F)c1` [Example 106, N-(4-((6,7-dimethoxyquinolin-4-yl)oxy)-3-fluorophenyl)-4-ethoxy-1′-methyl-1′H-[1,3′-bipyrazole]-3-carboxamide], `COc1cc2c(Oc3ccc(N)cc3F)ccnc2cc1OCC1CCN(C(=O)OC(C)(C)C)CC1` [tert-butyl 4-(((4-(4-amino-2-fluorophenoxy)-6-methoxyquinolin-7-yl)oxy)methyl)piperidine-1-carboxylate] is higher in IC50: < 0.5 µM for the first, > 10 µM for the second.

same assay, conditions: listed as compound 64

`COc1cc2nccc(Oc3ccc(NC(=O)c4ccco4)cc3)c2cc1OC` [Ref3, N-(4-((6,7-dimethoxyquinolin-4-yl)oxy)phenyl)furan-2-carboxamide, reference compound] was tested, and the IC50 was ≥ 10 µM.

same assay, conditions: listed as compound 71

In the case of `COc1cc2nccc(Oc3ccc(NC(=O)c4ccncc4)cc3)c2cc1OC` [Ref5, N-(4-((6,7-dimethoxyquinolin-4-yl)oxy)phenyl)isonicotinamide, reference compound], the IC50 is reported as ≥ 10 µM.
